The values that follow come from patent US12281116B2, “HTT modulators for treating Huntington's disease” (CHDI Foundation, Inc., priority 2021, dated 2025).

Bounds are passed on as bounds.

This assay deals with tHTT (total HTT protein). As to the kind of experiment: Time-resolved FRET (HTRF) assay: Q48-Huntingtin and total-Huntingtin detection in GEN020 hESC lysates. Format: cell-based. The note with it: tHTT activity; human embryonic stem cells GEN020 (mutant 48 Q repeat allele); test compounds 48 hours; read-out: HTT Lowering Activity (HTRF). Here is the method:
Time-resolved FRET assay: Q48-Huntingtin and total-Huntington detection Detection of endogenous HTT protein in cell lysates was performed using a protocol adapted from Weiss et al. See Weiss A et al. (2009). Single-step detection of mutant huntingtin in animal and human tissues: a bioassay for Huntington's disease. Anal. Biochem. 395(1): 8-15.
The multiplex assay was performed in human embryonic stem cells (GEN020 hESCs with mutant 48 Q repeat allele) which have been derived by Genea Biocells from human blastocysts of HD donors. Bradley C K et al. (2011). Derivation of Huntington's disease-affected human embryonic stem cell lines, Stem Cells Dev. 2011 March; 20(3):495-502. Cells were plated into 384-well collagen coated plates (10,000 cells per well) and left to adhere for 24 hours, test compounds were then added for 48 hours (37° C., 5% CO2), cells were then lysed, and the lysate was transferred to a black 384-well assay plate.
The assay plate included a combination of HTRF labelled monoclonal antibodies added to recognize discreet areas of the HTT protein, the Tb “donor” antibody (2B7-Tb: 0.2 ng/well) recognizes a sequence at the N-terminus of the protein, an Alexa488 “acceptor 1” antibody (MW1-Alexa488: 30 ng/well) recognizes an area in the polyQ region, whereas a d2 “acceptor 2” antibody (MAB2166-d2: 6 ng/well) recognizes a sequence beyond the polyQ region. These detection reagents were incubated with the cell lysate at room temperature for 4-6 hours before having their fluorescence quantified at 615 nm (donor) and 535 nm and 665 nm (acceptor 1 and 2 respectively). The donor/acceptor ratio between these signals indicated the relative quantities of mHTT and tHTT.
Results for various compounds described herein are provided in the Tables below. tHTT activity in this assay is categorized as 10-20 μM (−); 1-10 μM (+); 0.5-1 μM (++); 0.1-0.5 μM (+++); <0.1 μM (++++).
Turning to `Cc1cn2cc(NC(=O)c3cnc(N4CCC(C)(N)C4)cn3)cc(F)c2n1` (racemic) [Example 42, 5-(3-Amino-3-methyl-pyrrolidin-1-yl)-N-(8-fluoro-2-methyl-imidazo[1,2-a]pyridin-6-yl)pyrazine-2-carboxamide], the IC50 lay in the range of 0.1 to 0.5 µM.
To `Cc1cn2cc(NC(=O)c3cnc(N4CCC(N(C)C)C4=O)cn3)cc(F)c2n1` (single isomer, unassigned) [Example 38, (S*)-5-(3-(dimethylamino)-2-oxopyrrolidin-1-yl)-N-(8-fluoro-2-methylimidazo[1,2-a]pyridin-6-yl)pyrazine-2-carboxamide] belongs 0.5 to 1 µM.
To `Cc1cn2cc(NC(=O)c3cnc(N4CCC(N(C)C)C4=O)cn3)cc(F)c2n1` (single isomer, unassigned) [Example 39, (R*)-5-(3-(dimethylamino)-2-oxopyrrolidin-1-yl)-N-(8-fluoro-2-methylimidazo[1,2-a]pyridin-6-yl)pyrazine-2-carboxamide] belongs 0.5 to 1 µM; to `Cc1cn2cc(NC(=O)c3cnc(N4CC(CNC5CC5)CC4=O)cn3)cc(F)c2n1` (single isomer, unassigned) [Example 40, (R*)-5-(4-((cyclopropylamino)methyl)-2-oxopyrrolidin-1-yl)-N-(8-fluoro-2-methylimidazo[1,2-a]pyridin-6-yl)pyrazine-2-carboxamide], 0.1 to 0.5 µM; to `Cc1cn2cc(NC(=O)c3cnc(N4CC(CNC5CC5)CC4=O)cn3)cc(F)c2n1` (single isomer, unassigned) [Example 41, (S*)-5-(4-((cyclopropylamino)methyl)-2-oxopyrrolidin-1-yl)-N-(8-fluoro-2-methylimidazo[1,2-a]pyridin-6-yl)pyrazine-2-carboxamide], 0.5 to 1 µM.
For the compound `Cn1cc2cc(NC(=O)c3cnc(N4CC[C@@H](NC5CC5)C4)cn3)c(OC3CCOCC3)cc2n1` [Example 2, (R)-5-(3-(cyclopropylamino)pyrrolidin-1-yl)-N-(2-methyl-6-((tetrahydro-2H-pyran-4-yl)oxy)-2H-indazol-5-yl)pyrazine-2-carboxamide], the IC50 was in the range of 0.5 to 1 µM.
To `CC#CCOc1cc2nn(C)cc2cc1NC(=O)c1cnc(N2CC[C@@H](NC3CC3)C2)cn1` [Example 3, (R)-N-(6-(but-2-yn-1-yloxy)-2-methyl-2H-indazol-5-yl)-5-(3-(cyclopropylamino)pyrrolidin-1-yl)pyrazine-2-carboxamide] belongs 0.1 to 0.5 µM; to `C#CCOc1cc2nn(C)cc2cc1NC(=O)c1cnc(N2CC[C@@H](NC)C2)cn1` [Example 4, (R)-N-(2-methyl-6-(prop-2-yn-1-yloxy)-2H-indazol-5-yl)-5-(3-(methylamino)pyrrolidin-1-yl)pyrazine-2-carboxamide], < 0.1 µM.
To `C#CCOc1cc2nn(C)cc2cc1NC(=O)c1cnc(N2CC[C@@H](NC3CC3)C2)cn1` [Example 5, (R)-5-(3-(cyclopropylamino)pyrrolidin-1-yl)-N-(2-methyl-6-(prop-2-yn-1-yloxy)-2H-indazol-5-yl)pyrazine-2-carboxamide] belongs 0.1 to 0.5 µM; to `Cn1cc2cc(NC(=O)c3cnc(N4CC[C@@H](NC5CC5)C4)cn3)c(OCC3CCOCC3)cc2n1` [Example 6, (R)-5-(3-(cyclopropylamino)pyrrolidin-1-yl)-N-(2-methyl-6-((tetrahydro-2H-pyran-4-yl)methoxy)-2H-indazol-5-yl)pyrazine-2-carboxamide], 0.5 to 1 µM.
Take `Cn1cc2cc(NC(=O)c3cnc(N4CC[C@@H](NC5CC5)C4)cn3)c(OCC#N)cc2n1` [Example 7, (R)-N-(6-(cyanomethoxy)-2-methyl-2H-indazol-5-yl)-5-(3-(cyclopropylamino)pyrrolidin-1-yl)pyrazine-2-carboxamide]: the IC50 is 0.1 to 0.5 µM.
For the compound `CN[C@@H]1CCN(c2cnc(C(=O)Nc3cc4cn(C)nc4cc3OCc3ccccc3)cn2)C1` [Example 8, (R)-N-(6-(benzyloxy)-2-methyl-2H-indazol-5-yl)-5-(3-(methylamino)pyrrolidin-1-yl)pyrazine-2-carboxamide], the IC50 was < 0.1 µM.
To `COCCOc1cc2nn(C)cc2cc1NC(=O)c1cnc(N2CC[C@@H](NC3CC3)C2)cn1` [Example 9, (R)-5-(3-(cyclopropylamino)pyrrolidin-1-yl)-N-(6-(2-methoxyethoxy)-2-methyl-2H-indazol-5-yl)pyrazine-2-carboxamide] belongs 0.1 to 0.5 µM; to `CN1CCCC2(C1)CN(c1cnc(C(=O)Nc3cc4cn(C)nc4cc3OCc3ccccc3)cn1)C2` [Example 10, N-(6-(benzyloxy)-2-methyl-2H-indazol-5-yl)-5-(6-methyl-2,6-diazaspiro[3.5]nonan-2-yl)pyrazine-2-carboxamide], 0.1 to 0.5 µM; to `C#CCOc1cc2nn(C)cc2cc1NC(=O)c1cnc(N2CC3(CCCN(C)C3)C2)cn1` [Example 11, N-(2-methyl-6-(prop-2-yn-1-yloxy)-2H-indazol-5-yl)-5-(6-methyl-2,6-diazaspiro[3.5]nonan-2-yl)pyrazine-2-carboxamide], 0.1 to 0.5 µM.
To `Cc1nc2c(F)cc(NC(=O)c3cnc(N4CC(CNC(C)C)C4)cn3)cc2o1` [Example 12, N-(4-fluoro-2-methylbenzo[d]oxazol-6-yl)-5-(3-((isopropylamino)methyl)azetidin-1-yl)pyrazine-2-carboxamide] belongs 0.1 to 0.5 µM; to `Cc1cn2cc(NC(=O)c3cnc(N4C[C@@H](C)[C@H](NC5CC5)C4)cn3)cc(F)c2n1` [Example 13, 5-((3S,4R)-3-(cyclopropylamino)-4-methylpyrrolidin-1-yl)-N-(8-fluoro-2-methylimidazo[1,2-a]pyridin-6-yl)pyrazine-2-carboxamide], 0.1 to 0.5 µM; to `Cc1nc2c(F)cc(NC(=O)c3cnc(N(C)C4CCNCC4)cn3)cc2o1` [Example 14, N-(4-fluoro-2-methylbenzo[d]oxazol-6-yl)-5-(methyl(piperidin-4-yl)amino)pyrazine-2-carboxamide], 0.1 to 0.5 µM.
For the compound `CN[C@@H]1CCN(c2cnc(C(=O)Nc3cc(Cl)n4nc(C)cc4c3)cn2)C1` [Example 15], the IC50 was < 0.1 µM.
As for `Cc1cc2cc(NC(=O)c3cnc(N4CC[C@@H](CNC5CC5)C4)cn3)cc(Cl)n2n1` [Example 16], the IC50 fell in the range of 0.5 to 1 µM.
To `CCOc1cc2nn(C)cc2cc1NC(=O)c1cnc(N2CC(CN3CC(F)C3)C2)cn1` [Example 17] belongs 0.1 to 0.5 µM.
To `Cn1cc2cc(NC(=O)c3cnc(N4CC[C@@H](NC5CC5)C4)cn3)c(OC(F)F)cc2n1` [Example 18] belongs 0.1 to 0.5 µM; to `CN[C@@H]1CCN(c2cnc(C(=O)Nc3cc(F)c4nc(C)nn4c3)cn2)C1` [Example 19, (R)-N-(8-fluoro-2-methyl-[1,2,4]triazolo[1,5-a]pyridin-6-yl)-5-(3-(methylamino)pyrrolidin-1-yl)pyrazine-2-carboxamide], 0.1 to 0.5 µM.
To `Cc1cn2cc(NC(=O)c3cnc(N4CC[C@@H](NC5=NCCN5)C4)cn3)cc(F)c2n1` [Example 20, (R)-5-(3-((4,5-dihydro-1H-imidazol-2-yl)amino)pyrrolidin-1-yl)-N-(8-fluoro-2-methylimidazo[1,2-a]pyridin-6-yl)pyrazine-2-carboxamide] belongs 0.1 to 0.5 µM; to `CN[C@@H]1CCN(c2cnc(C(=O)Nc3cn4cc(C)nc4c(F)c3C)cn2)C1` [Example 21, (R)-N-(8-fluoro-2,7-dimethylimidazo[1,2-a]pyridin-6-yl)-5-(3-(methylamino)pyrrolidin-1-yl)pyrazine-2-carboxamide], 0.1 to 0.5 µM.
In the case of `CN[C@@H]1CCN(c2cnc(C(=O)Nc3cc(OC)c4nc(C)oc4c3)cn2)C1` [Example 22, (R)-N-(4-methoxy-2-methylbenzo[d]oxazol-6-yl)-5-(3-(methylamino)pyrrolidin-1-yl)pyrazine-2-carboxamide], the IC50 lay in the range of 0.1 to 0.5 µM.
To `CCNC1C2CN(c3cnc(C(=O)Nc4cc(F)c5nc(C)cn5c4)cn3)CC21` (centres unmarked) [Example 23, 5-(6-(ethylamino)-3-azabicyclo[3.1.0]hexan-3-yl)-N-(8-fluoro-2-methylimidazo[1,2-a]pyridin-6-yl)pyrazine-2-carboxamide] belongs < 0.1 µM; to `Cc1cn2cc(NC(=O)c3cnc(N4CC5C(N)C5C4)cn3)cc(F)c2n1` (centres unmarked) [Example 24, 5-(6-amino-3-azabicyclo[3.1.0]hexan-3-yl)-N-(8-fluoro-2-methyl-imidazo[1,2-a]pyridin-6-yl)pyrazine-2-carboxamide], < 0.1 µM; to `Cc1cn2cc(NC(=O)c3cnc(N4CC5C(N)C5C4)cn3)nc(C)c2n1` (centres unmarked) [Example 25], 0.1 to 0.5 µM.
To `COc1nc(NC(=O)c2cnc(N3CC4C(N)C4C3)cn2)cn2cc(C)nc12` (centres unmarked) [Example 26] belongs < 0.1 µM.
With `Cc1cn2cc(NC(=O)c3cnc(N4CC5C(N)C5C4)cn3)c(F)c(C)c2n1` (centres unmarked) [Example 27], the IC50 was 0.1 to 0.5 µM.
To `Cc1cn2cc(NC(=O)c3cnc(N4CC5CC5(N)C4)cn3)cc(F)c2n1` (centres unmarked) [Example 28] belongs 0.1 to 0.5 µM.
